# Laboratory results reported in ChEMBL document CHEMBL2074274, “Transport of quinolone antibacterial drugs by human P-glycoprotein expressed in a kidney epithelial cell line, LLC-PK1” (J Pharmacol Exp Ther, 1997).
# Experiments:
# Assay type in all cases: functional, cell-based
# [1] = target: T1, ATP-dependent translocase ABCB1 (Homo sapiens, UniProt P08183); experiment: TP_TRANSPORTER: inhibition of Daunorubicin transepithelial transport (basal to apical) (Daunorubicin: 0.1 uM, Levofloxacin: 3000 uM) in MDR1-expressing LLC-PK1 cells; details: pig, llc-pk1, 3000 µM
# T1 sequence (P08183 whole entry): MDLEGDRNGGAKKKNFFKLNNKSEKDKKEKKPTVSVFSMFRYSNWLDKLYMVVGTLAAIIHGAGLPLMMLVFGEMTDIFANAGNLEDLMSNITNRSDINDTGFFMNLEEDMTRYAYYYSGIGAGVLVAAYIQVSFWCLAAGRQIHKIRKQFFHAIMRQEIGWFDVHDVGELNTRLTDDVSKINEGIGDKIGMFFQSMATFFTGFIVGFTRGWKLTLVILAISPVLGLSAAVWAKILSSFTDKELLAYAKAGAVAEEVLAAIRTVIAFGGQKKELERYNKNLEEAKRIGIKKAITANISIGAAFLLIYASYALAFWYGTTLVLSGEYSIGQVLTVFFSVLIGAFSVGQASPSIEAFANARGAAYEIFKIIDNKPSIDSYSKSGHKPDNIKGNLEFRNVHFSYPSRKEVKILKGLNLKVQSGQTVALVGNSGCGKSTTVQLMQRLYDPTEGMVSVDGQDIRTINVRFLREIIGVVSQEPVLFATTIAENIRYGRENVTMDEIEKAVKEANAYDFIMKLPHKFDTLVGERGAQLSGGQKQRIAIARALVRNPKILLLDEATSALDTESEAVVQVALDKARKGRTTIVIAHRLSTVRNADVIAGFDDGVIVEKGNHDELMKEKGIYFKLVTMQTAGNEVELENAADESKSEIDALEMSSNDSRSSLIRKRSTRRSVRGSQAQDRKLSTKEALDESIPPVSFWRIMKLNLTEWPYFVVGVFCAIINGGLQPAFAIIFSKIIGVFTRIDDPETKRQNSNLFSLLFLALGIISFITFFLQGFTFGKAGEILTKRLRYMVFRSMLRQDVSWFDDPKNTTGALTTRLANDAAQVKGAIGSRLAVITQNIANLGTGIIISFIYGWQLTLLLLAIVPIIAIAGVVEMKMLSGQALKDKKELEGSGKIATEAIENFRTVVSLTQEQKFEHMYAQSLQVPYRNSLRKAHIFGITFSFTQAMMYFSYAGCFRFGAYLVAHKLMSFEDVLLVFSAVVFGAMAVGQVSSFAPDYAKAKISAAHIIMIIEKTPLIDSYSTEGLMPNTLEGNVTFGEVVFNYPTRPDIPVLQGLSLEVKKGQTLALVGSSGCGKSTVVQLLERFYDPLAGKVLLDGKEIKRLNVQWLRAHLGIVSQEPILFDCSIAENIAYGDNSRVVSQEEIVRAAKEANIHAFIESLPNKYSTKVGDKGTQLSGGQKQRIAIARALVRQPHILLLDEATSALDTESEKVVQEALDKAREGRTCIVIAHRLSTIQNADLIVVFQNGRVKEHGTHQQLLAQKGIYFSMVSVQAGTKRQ
# [2] = target: T1, ATP-dependent translocase ABCB1; experiment: TP_TRANSPORTER: inhibition of DU-6895a transepithelial transport (basal to apical) (DU-6895a: 100 uM, Levofloxacin: 3000 uM) in MDR1-expressing LLC-PK1 cells; details: pig, llc-pk1, 3000 µM
# [3] = system: C[C@H]1COc2c(N3CCN(C)CC3)c(F)cc3c(=O)c(C(=O)O)cn1c23; experiment: TP_TRANSPORTER: transepithelial transport (basal to apical) in MDR1-expressing LLC-PK1 cells
# [4] = target: T1, ATP-dependent translocase ABCB1; experiment: TP_TRANSPORTER: inhibition of Levofloxacin transepithelial transport (basal to apical) (Levofloxacin: 100 uM, PAH: 2500 uM) in MDR1-expressing LLC-PK1 cells; details: pig, llc-pk1, 2500 µM
compound,measurement,setting,value
C[C@H]1COc2c(N3CCN(C)CC3)c(F)cc3c(=O)c(C(=O)O)cn1c23.C[C@H]1COc2c(N3CCN(C)CC3)c(F)cc3c(=O)c(C(=O)O)cn1c23.O [LEVOFLOXACIN],Activity,[1],inhibitor [+]
same,Activity,[2],inhibitor [+]
ATP-dependent translocase ABCB1 (Homo sapiens),Km,[3],3 mM
Nc1ccc(C(=O)NCC(=O)O)cc1 [AMINOHIPPURIC ACID],Activity,[4],is not an inhibitor [-]
